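Here, GI50 denotes the concentration required for 50% inhibition of growth. Definition used: TGI = concentration required for complete inhibition of growth.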
Experiments:
Test in all cases: NCI-60 cell line screen, 384-well format
786-0 renal = test system: 786-0 renal
A498 renal = test system: A498 renal
A549 NSCLC = test system: A549 NSCLC
ACHN renal = test system: ACHN renal
BT-549 breast = test system: BT-549 breast
CAKI-1 renal = test system: CAKI-1 renal
CCRF-CEM leukemia = test system: CCRF-CEM leukemia
COLO 205 colon = test system: COLO 205 colon
DU-145 prostate = test system: DU-145 prostate
EKVX NSCLC = test system: EKVX NSCLC
HCC-2998 colon = test system: HCC-2998 colon
HCT-116 colon = test system: HCT-116 colon
HCT-15 colon = test system: HCT-15 colon
HL-60(TB) leukemia = test system: HL-60(TB) leukemia
HOP-62 NSCLC = test system: HOP-62 NSCLC
HOP-92 NSCLC = test system: HOP-92 NSCLC
HS 578T breast = test system: HS 578T breast
HT29 colon = test system: HT29 colon
IGROV1 ovarian = test system: IGROV1 ovarian
K-562 leukemia = test system: K-562 leukemia
KM12 colon = test system: KM12 colon
LOX IMVI melanoma = test system: LOX IMVI melanoma
M14 melanoma = test system: M14 melanoma
MALME-3M melanoma = test system: MALME-3M melanoma
MCF7 breast = test system: MCF7 breast
MDA-MB-435 melanoma = test system: MDA-MB-435 melanoma
MDA-MB-468 breast = test system: MDA-MB-468 breast
MOLT-4 leukemia = test system: MOLT-4 leukemia
NCI-H226 lung = test system: NCI-H226 lung
NCI-H23 lung = test system: NCI-H23 lung
NCI-H322M lung = test system: NCI-H322M lung
NCI-H460 NSCLC = test system: NCI-H460 NSCLC
NCI-H522 lung = test system: NCI-H522 lung
NCI/ADR-RES ovarian = test system: NCI/ADR-RES ovarian
OVCAR-3 ovarian = test system: OVCAR-3 ovarian
OVCAR-4 ovarian = test system: OVCAR-4 ovarian
OVCAR-8 ovarian = test system: OVCAR-8 ovarian
PC-3 prostate = test system: PC-3 prostate
RPMI-8226 leukemia = test system: RPMI-8226 leukemia
RXF 393 renal = test system: RXF 393 renal
SF-268 CNS = test system: SF-268 CNS
SF-295 CNS = test system: SF-295 CNS
SF-539 CNS = test system: SF-539 CNS
SK-MEL-2 melanoma = test system: SK-MEL-2 melanoma
SK-MEL-28 melanoma = test system: SK-MEL-28 melanoma
SK-MEL-5 melanoma = test system: SK-MEL-5 melanoma
SK-OV-3 ovarian = test system: SK-OV-3 ovarian
SN12C renal = test system: SN12C renal
SNB-19 CNS = test system: SNB-19 CNS
SNB-75 CNS = test system: SNB-75 CNS
SW-620 colon = test system: SW-620 colon
TK-10 renal = test system: TK-10 renal
U251 glioblastoma = test system: U251 glioblastoma
UACC-257 melanoma = test system: UACC-257 melanoma
UACC-62 melanoma = test system: UACC-62 melanoma

## CN(C)C(=O)c1ccc(SC(=S)NCc2ccccc2)cc1
786-0 renal
  GI50: 1.99 µM
  TGI: 3.6 µM
A498 renal
  GI50: 3.78 µM
  TGI: 10.3 µM
A549 NSCLC
  GI50: 7.98 µM
  TGI: 21 µM
ACHN renal
  GI50: 3.24 µM
  TGI: 8.66 µM
BT-549 breast
  GI50: 2.39 µM
  TGI: 4.6 µM
CAKI-1 renal
  GI50: 2.92 µM
  TGI: 9.76 µM
CCRF-CEM leukemia
  GI50: 1.63 µM
  TGI: 3.05 µM
COLO 205 colon
  GI50: 4.72 µM
  TGI: 15.1 µM
DU-145 prostate
  GI50: 5.09 µM
  TGI: 15 µM
EKVX NSCLC
  GI50: 13.4 µM
  TGI: 26.3 µM
HCC-2998 colon
  GI50: 4.77 µM
  TGI: 13.6 µM
HCT-116 colon
  GI50: 3.51 µM
  TGI: 8.81 µM
HCT-15 colon
  GI50: 1.9 µM
  TGI: 3.53 µM
HL-60(TB) leukemia
  GI50: 0.364 µM
  TGI: 1.15 µM
HOP-62 NSCLC
  GI50: 1.9 µM
  TGI: 3.87 µM
HOP-92 NSCLC
  GI50: 2.72 µM
  TGI: 7.17 µM
HS 578T breast
  GI50: 2.77 µM
  TGI: 5.81 µM
HT29 colon
  GI50: 1.8 µM
  TGI: 3.25 µM
IGROV1 ovarian
  GI50: 2.48 µM
  TGI: 6.77 µM
K-562 leukemia
  GI50: 10.6 µM
  TGI: 22.5 µM
KM12 colon
  GI50: 1.67 µM
  TGI: 8.91 µM
LOX IMVI melanoma
  GI50: 2.07 µM
  TGI: 4.09 µM
M14 melanoma
  GI50: 2.36 µM
  TGI: 5.32 µM
MALME-3M melanoma
  GI50: 3.15 µM
  TGI: 5.52 µM
MCF7 breast
  GI50: 2.36 µM
  TGI: 10.6 µM
MDA-MB-435 melanoma
  GI50: 2.23 µM
  TGI: 5.21 µM
MDA-MB-468 breast
  GI50: 0.701 µM
  TGI: 1.33 µM
MOLT-4 leukemia
  GI50: 1.64 µM
  TGI: 3.09 µM
NCI-H226 lung
  GI50: 2.63 µM
  TGI: 6.33 µM
NCI-H23 lung
  GI50: 3.17 µM
  TGI: 8.36 µM
NCI-H322M lung
  GI50: 5.05 µM
  TGI: 15.7 µM
NCI-H460 NSCLC
  GI50: 2.73 µM
  TGI: 6.45 µM
NCI-H522 lung
  GI50: 3.18 µM
  TGI: 7.34 µM
NCI/ADR-RES ovarian
  GI50: 2.96 µM
  TGI: 6.23 µM
OVCAR-3 ovarian
  GI50: 3.8 µM
  TGI: 11.4 µM
OVCAR-4 ovarian
  GI50: 15.7 µM
  TGI: 29.2 µM
OVCAR-8 ovarian
  GI50: 2.15 µM
  TGI: 4.31 µM
PC-3 prostate
  GI50: 3.64 µM
  TGI: 9.17 µM
RPMI-8226 leukemia
  GI50: 0.458 µM
  TGI: 1.22 µM
RXF 393 renal
  GI50: 1.83 µM
  TGI: 3.34 µM
SF-268 CNS
  GI50: 3.83 µM
  TGI: 10.8 µM
SF-295 CNS
  GI50: 12.1 µM
  TGI: 24.6 µM
SF-539 CNS
  GI50: 1.77 µM
  TGI: 3.29 µM
SK-MEL-2 melanoma
  GI50: 1.54 µM
  TGI: 2.98 µM
SK-MEL-28 melanoma
  GI50: 2.52 µM
  TGI: 4.91 µM
SK-MEL-5 melanoma
  GI50: 1.91 µM
  TGI: 3.38 µM
SK-OV-3 ovarian
  GI50: 6.26 µM
  TGI: 18.1 µM
SN12C renal
  GI50: 2.45 µM
  TGI: 6.12 µM
SNB-19 CNS
  GI50: 3.37 µM
  TGI: 9.21 µM
SNB-75 CNS
  GI50: 4.09 µM
  TGI: 7.63 µM
SW-620 colon
  GI50: 2.87 µM
  TGI: 10.1 µM
TK-10 renal
  GI50: 2.87 µM
  TGI: 6.13 µM
U251 glioblastoma
  GI50: 3.55 µM
  TGI: 9.29 µM
UACC-257 melanoma
  GI50: 2.9 µM
  TGI: 5.66 µM
UACC-62 melanoma
  GI50: 2.09 µM
  TGI: 3.61 µM
